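Following 48 hours of exposure in 96-well plates, responses at five concentrations were used to interpolate endpoints linearly. TGI: concentration producing complete growth inhibition.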
Test system: UO-31 renal
Assay: NCI anticancer screen, dose series, 48 h

| Compound | TGI |
| --- | --- |
| C=CCC1(C)CCCCC1(O)CS(=O)c1ccccc1 (stereo not given) | > 100 µM |
| CS(=O)(=O)CS(=O)(=O)OCCCl | 1080 µM |
| CC12CCC(=O)N1c1cccnc1N2 (stereo not given) | > 100 µM |
| COc1cc2c(cc1OC)C1Cc3cc(OC)c(OC)cc3N1CC2 (stereo not given) | 86 µM |
| CCOC(=O)C1=C(Nc2ccc(Br)cc2)OCC1=O | > 100 µM |
| CCOc1ccc(N=Cc2c3ccccc3nc3ccccc23)cc1 | > 100 µM |
| C1=NC(N(Cc2ccccc2)Cc2ccccc2)N(Cc2ccccc2)N1 (stereo not given) | 33.9 µM |

Test system: COLO 205 colon
Assay: NCI anticancer screen, dose series, 48 h

| Compound | TGI |
| --- | --- |
| C=CCC1(C)CCCCC1(O)CS(=O)c1ccccc1 (stereo not given) | > 100 µM |
| CS(=O)(=O)CS(=O)(=O)OCCCl | 831 µM |
| CC12CCC(=O)N1c1cccnc1N2 (stereo not given) | > 100 µM |
| COc1cc2c(cc1OC)C1Cc3cc(OC)c(OC)cc3N1CC2 (stereo not given) | 52.1 µM |
| CCOC(=O)C1=C(Nc2ccc(Br)cc2)OCC1=O | > 100 µM |
| CCOc1ccc(N=Cc2c3ccccc3nc3ccccc23)cc1 | > 100 µM |
| C1=NC(N(Cc2ccccc2)Cc2ccccc2)N(Cc2ccccc2)N1 (stereo not given) | 30.8 µM |

Test system: M19-MEL melanoma
Assay: NCI anticancer screen, dose series, 48 h

| Compound | TGI |
| --- | --- |
| C=CCC1(C)CCCCC1(O)CS(=O)c1ccccc1 (stereo not given) | > 100 µM |
| CS(=O)(=O)CS(=O)(=O)OCCCl | 937 µM |
| CC12CCC(=O)N1c1cccnc1N2 (stereo not given) | > 100 µM |
| COc1cc2c(cc1OC)C1Cc3cc(OC)c(OC)cc3N1CC2 (stereo not given) | 80.5 µM |
| CCOC(=O)C1=C(Nc2ccc(Br)cc2)OCC1=O | > 100 µM |
| CCOc1ccc(N=Cc2c3ccccc3nc3ccccc23)cc1 | > 100 µM |
| C1=NC(N(Cc2ccccc2)Cc2ccccc2)N(Cc2ccccc2)N1 (stereo not given) | 34.2 µM |

Test system: A498 renal
Assay: NCI anticancer screen, dose series, 48 h

| Compound | TGI |
| --- | --- |
| C=CCC1(C)CCCCC1(O)CS(=O)c1ccccc1 (stereo not given) | > 100 µM |
| CS(=O)(=O)CS(=O)(=O)OCCCl | 1350 µM |
| CC12CCC(=O)N1c1cccnc1N2 (stereo not given) | > 100 µM |
| COc1cc2c(cc1OC)C1Cc3cc(OC)c(OC)cc3N1CC2 (stereo not given) | > 100 µM |
| CCOC(=O)C1=C(Nc2ccc(Br)cc2)OCC1=O | > 100 µM |
| CCOc1ccc(N=Cc2c3ccccc3nc3ccccc23)cc1 | > 100 µM |
| C1=NC(N(Cc2ccccc2)Cc2ccccc2)N(Cc2ccccc2)N1 (stereo not given) | 32.2 µM |

Test system: OVCAR-8 ovarian
Assay: NCI anticancer screen, dose series, 48 h

| Compound | TGI |
| --- | --- |
| C=CCC1(C)CCCCC1(O)CS(=O)c1ccccc1 (stereo not given) | > 100 µM |
| CS(=O)(=O)CS(=O)(=O)OCCCl | 1270 µM |
| CC12CCC(=O)N1c1cccnc1N2 (stereo not given) | > 100 µM |
| COc1cc2c(cc1OC)C1Cc3cc(OC)c(OC)cc3N1CC2 (stereo not given) | > 100 µM |
| CCOC(=O)C1=C(Nc2ccc(Br)cc2)OCC1=O | > 100 µM |
| CCOc1ccc(N=Cc2c3ccccc3nc3ccccc23)cc1 | > 100 µM |
| C1=NC(N(Cc2ccccc2)Cc2ccccc2)N(Cc2ccccc2)N1 (stereo not given) | 54.5 µM |

Test system: HOP-62 NSCLC
Assay: NCI anticancer screen, dose series, 48 h

| Compound | TGI |
| --- | --- |
| C=CCC1(C)CCCCC1(O)CS(=O)c1ccccc1 (stereo not given) | > 100 µM |
| CS(=O)(=O)CS(=O)(=O)OCCCl | 151 µM |
| CC12CCC(=O)N1c1cccnc1N2 (stereo not given) | > 100 µM |
| COc1cc2c(cc1OC)C1Cc3cc(OC)c(OC)cc3N1CC2 (stereo not given) | 84.9 µM |
| CCOC(=O)C1=C(Nc2ccc(Br)cc2)OCC1=O | > 100 µM |
| CCOc1ccc(N=Cc2c3ccccc3nc3ccccc23)cc1 | > 100 µM |
| C1=NC(N(Cc2ccccc2)Cc2ccccc2)N(Cc2ccccc2)N1 (stereo not given) | 32.7 µM |

Test system: MOLT-4 leukemia
Assay: NCI anticancer screen, dose series, 48 h

| Compound | TGI |
| --- | --- |
| C=CCC1(C)CCCCC1(O)CS(=O)c1ccccc1 (stereo not given) | > 100 µM |
| CS(=O)(=O)CS(=O)(=O)OCCCl | 629 µM |
| CC12CCC(=O)N1c1cccnc1N2 (stereo not given) | > 100 µM |
| COc1cc2c(cc1OC)C1Cc3cc(OC)c(OC)cc3N1CC2 (stereo not given) | > 100 µM |
| CCOC(=O)C1=C(Nc2ccc(Br)cc2)OCC1=O | > 100 µM |
| CCOc1ccc(N=Cc2c3ccccc3nc3ccccc23)cc1 | > 100 µM |
| C1=NC(N(Cc2ccccc2)Cc2ccccc2)N(Cc2ccccc2)N1 (stereo not given) | > 100 µM |

Test system: SNB-78 CNS
Assay: NCI anticancer screen, dose series, 48 h

| Compound | TGI |
| --- | --- |
| C=CCC1(C)CCCCC1(O)CS(=O)c1ccccc1 (stereo not given) | > 100 µM |
| CS(=O)(=O)CS(=O)(=O)OCCCl | 420 µM |
| CC12CCC(=O)N1c1cccnc1N2 (stereo not given) | > 100 µM |
| COc1cc2c(cc1OC)C1Cc3cc(OC)c(OC)cc3N1CC2 (stereo not given) | > 100 µM |
| CCOC(=O)C1=C(Nc2ccc(Br)cc2)OCC1=O | > 100 µM |
| CCOc1ccc(N=Cc2c3ccccc3nc3ccccc23)cc1 | > 100 µM |
| C1=NC(N(Cc2ccccc2)Cc2ccccc2)N(Cc2ccccc2)N1 (stereo not given) | > 100 µM |

Test system: HCC-2998 colon
Assay: NCI anticancer screen, dose series, 48 h

| Compound | TGI |
| --- | --- |
| C=CCC1(C)CCCCC1(O)CS(=O)c1ccccc1 (stereo not given) | > 100 µM |
| CS(=O)(=O)CS(=O)(=O)OCCCl | 727 µM |
| CC12CCC(=O)N1c1cccnc1N2 (stereo not given) | > 100 µM |
| COc1cc2c(cc1OC)C1Cc3cc(OC)c(OC)cc3N1CC2 (stereo not given) | > 100 µM |
| CCOC(=O)C1=C(Nc2ccc(Br)cc2)OCC1=O | > 100 µM |
| CCOc1ccc(N=Cc2c3ccccc3nc3ccccc23)cc1 | > 100 µM |
| C1=NC(N(Cc2ccccc2)Cc2ccccc2)N(Cc2ccccc2)N1 (stereo not given) | 36.4 µM |

Test system: CAKI-1 renal
Assay: NCI anticancer screen, dose series, 48 h

| Compound | TGI |
| --- | --- |
| C=CCC1(C)CCCCC1(O)CS(=O)c1ccccc1 (stereo not given) | > 100 µM |
| CS(=O)(=O)CS(=O)(=O)OCCCl | 799 µM |
| CC12CCC(=O)N1c1cccnc1N2 (stereo not given) | > 100 µM |
| COc1cc2c(cc1OC)C1Cc3cc(OC)c(OC)cc3N1CC2 (stereo not given) | 88.5 µM |
| CCOC(=O)C1=C(Nc2ccc(Br)cc2)OCC1=O | > 100 µM |
| CCOc1ccc(N=Cc2c3ccccc3nc3ccccc23)cc1 | > 100 µM |
| C1=NC(N(Cc2ccccc2)Cc2ccccc2)N(Cc2ccccc2)N1 (stereo not given) | 46.1 µM |
